The values that follow come from patent US10214544B2, “Imidazopyridazine and imidazothiadiazole compounds” (Universite de Montreal, priority 2015, dated 2019).

No end group written: not given here.

Chain of PAR1 (P25116 22-425): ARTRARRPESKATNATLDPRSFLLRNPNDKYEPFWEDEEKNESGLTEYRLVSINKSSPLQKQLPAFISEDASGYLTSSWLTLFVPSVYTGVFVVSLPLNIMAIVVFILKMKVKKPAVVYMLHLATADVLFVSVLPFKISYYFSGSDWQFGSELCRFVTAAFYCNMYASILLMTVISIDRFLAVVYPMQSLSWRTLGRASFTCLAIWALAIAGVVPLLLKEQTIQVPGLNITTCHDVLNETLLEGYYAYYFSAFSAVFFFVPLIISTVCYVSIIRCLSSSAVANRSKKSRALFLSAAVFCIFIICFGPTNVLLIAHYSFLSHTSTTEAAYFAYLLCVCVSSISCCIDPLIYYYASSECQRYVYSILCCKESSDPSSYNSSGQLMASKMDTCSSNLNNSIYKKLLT

The target of one test is PAR4 (Homo sapiens (Human), UniProt Q96RI0). Briefly: FLIPR assay in PAR4-expressing HEK293 cells (PAR4 antagonist activity). Particulars: inhibition of H-Ala-Phe(4-F)-Pro-Gly-Trp-Leu-Val-Lys-Asn-Gly-NH2-induced intracellular calcium mobilization. The class given is cell-based. (In general: Calcium flux is commonly read through the fluorescence of an indicator in the cells.)
Chain of PAR4 (Q96RI0 18-385): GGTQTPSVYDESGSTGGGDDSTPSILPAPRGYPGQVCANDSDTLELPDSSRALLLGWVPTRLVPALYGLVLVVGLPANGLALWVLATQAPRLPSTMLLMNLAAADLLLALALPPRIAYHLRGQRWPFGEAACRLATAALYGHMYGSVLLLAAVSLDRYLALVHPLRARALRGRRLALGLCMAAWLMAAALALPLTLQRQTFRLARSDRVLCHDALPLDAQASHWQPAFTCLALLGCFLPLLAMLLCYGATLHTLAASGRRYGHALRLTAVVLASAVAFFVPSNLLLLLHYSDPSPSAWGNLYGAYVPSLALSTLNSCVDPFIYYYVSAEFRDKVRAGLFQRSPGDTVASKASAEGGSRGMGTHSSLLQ
In general, EC50 refers to the concentration that produces a half-maximal response. On to `COc1cc(OCc2cccc(NC(=O)c3csc(-c4cccc(C(F)(F)F)c4)n3)c2)c2cc(-c3cn4nc(OC)sc4n3)oc2c1` [Example 80], for which the concentration for a half-maximal effect (EC50) was found to be 94 nM.

As for `COc1cc(OCc2cccc(NC(=O)c3ccc(Oc4ccccc4)nc3)c2)c2cc(-c3cn4nc(OC)sc4n3)oc2c1` [Example 51], the EC50 amounted to 2.3 nM. Turning to `COc1cc(OCc2cccc(NC(=O)c3ccc(OC)nc3)c2)c2cc(-c3cn4nc(OC)sc4n3)oc2c1` [Example 46], the half-maximal effective concentration (EC50) is 1.1 nM. As for `COc1cc(OCc2ccc3c(c2)N(C(=O)c2ccc(C)cc2)CC3)c2cc(-c3cn4nc(OC)sc4n3)oc2c1` [Example 105], the EC50 was found to be 3.4 nM. On to `COc1cc(OCc2cccc(NC(=O)c3ccccc3I)c2)c2cc(-c3cn4nc(OC)sc4n3)oc2c1` [Example 24], for which the concentration giving a half-maximal response (EC50) amounted to 1.4 nM. With `COc1cc(OCc2cccc(NC(=O)c3cccc4ccccc34)c2)c2cc(-c3cn4nc(OC)sc4n3)oc2c1` [Example 15], the half-maximal effective concentration (EC50) came out at 1.7 nM.

With `COc1cc(OCc2cccc3c2CCN3C(=O)c2ccnnc2)c2cc(-c3cn4nc(OC)sc4n3)oc2c1` [Example 128], the EC50 is above 3300 nM. On to `COc1cc(OCc2cccc(NC(=O)c3ccc(F)c(F)c3)c2)c2cc(-c3cn4nc(OC)sc4n3)oc2c1` [Example 166], for which the EC50 was 2.3 nM.

As for `COc1cc(OCc2cccc3c2CCN3C(=O)c2sc(C)nc2C)c2cc(-c3cn4nc(OC)sc4n3)oc2c1` [Example 129], the EC50 was determined as 4.2 nM.

`COc1cc(OCc2cccc(NC(=O)c3ccc4ccccc4c3)c2)c2cc(-c3cn4nc(OC)sc4n3)oc2c1` [Example 23]: the concentration giving a half-maximal response (EC50) was found to be 1.8 nM. Consider `COc1cccc(C(=O)Nc2cccc(COc3cc(OC)cc4oc(-c5cn6nc(OC)sc6n5)cc34)c2)c1` [Example 160], for which the 50% effective concentration (EC50) was determined as 36 nM. Same read-out and setting: to `COc1cc(OCc2cccc(N(C)C(=O)c3ccccc3F)c2)c2cc(-c3cn4nc(OC)sc4n3)oc2c1` [Example 88] belongs 3.3 nM. As to `COc1cc(OCc2cccc(NC(=O)c3cccc(Cl)c3)c2)c2cc(-c3cn4nc(OC)sc4n3)oc2c1` [Example 11], the concentration for a half-maximal effect (EC50) worked out at 1.7 nM.

In the case of `COc1cc(OCc2cccc(NC(=O)c3c(C)noc3C)c2)c2cc(-c3cn4nc(OC)sc4n3)oc2c1` [Example 45], the half-maximal effective concentration (EC50) came to 2.8 nM.

For `COC(=O)c1ccc(C(=O)Nc2cccc(COc3cc(OC)cc4oc(-c5cn6nc(OC)sc6n5)cc34)c2)cc1` [Example 34], the EC50 came out at 1.2 nM. On to `COc1cc(OCc2cccc(NC(=O)c3ccnnc3)c2)c2cc(-c3cn4nc(OC)sc4n3)oc2c1` [Example 69], for which the EC50 stood at 12 nM. The same measure, in the same setting: next, `COc1cc(OCc2cccc(NC(=O)c3cc(F)cc(OC(F)(F)F)c3)c2)c2cc(-c3cn4nc(OC)sc4n3)oc2c1` [Example 76]: 2.5 nM.

On to `COc1cc(OCc2cccc(NC(=O)c3ccc(C#N)cc3)c2)c2cc(-c3cn4nc(OC)sc4n3)oc2c1` [Example 36], for which the EC50 amounted to 2.5 nM.

On to `COc1cc(OCc2cccc(NC(=O)c3cccc(C)c3)c2)c2cc(-c3cn4nc(OC)sc4n3)oc2c1` [Example 20], for which the EC50 amounted to 1.4 nM. The same measure, in the same setting: to `COc1cc(OCc2cccc(N(C)C(=O)c3ccccc3C)c2)c2cc(-c3cn4nc(OC)sc4n3)oc2c1` [Example 84] belongs 2.5 nM; to `COc1cc(OCc2cccc(NC(=O)Cc3nc(C)sc3C)c2)c2cc(-c3cn4nc(OC)sc4n3)oc2c1` [Example 49], 0.85 nM. For the compound `COc1cc(OCc2cccc(NC(=O)Cc3ccccc3)c2)c2cc(-c3cn4nc(OC)sc4n3)oc2c1` [Example 135], the EC50 is 5 nM. On to `COc1cc(OCc2cccc(NC(=O)c3cc(Cl)nc(Cl)c3)c2)c2cc(-c3cn4nc(OC)sc4n3)oc2c1` [Example 55], for which the half-maximal effective concentration (EC50) was found to be 1.1 nM.

A further test concerns the target PAR1 (Homo sapiens (Human), UniProt P25116). Briefly: FLIPR assay, PAR1 agonist peptide response in PAR1/PAR4-expressing HEK293 cells. The test is classed as cell-based. Particulars: routine test of agonist response, FLIPR assay of Example A. The text has this:
HEK293 cells stably expressing PAR4 were generated by a standard method of transfection of human PAR4 (F2R23) cDNA expression vector and selected based on PAR4 protein expression or mRNA expression. […] These cells also express endogenous PAR1 and can elicit calcium signal upon stimulation with PAR1 agonist peptide. Therefore, the same cells were also used to determine selectivity against PAR1 and agonist activity for both receptors. Cells from HEK293 PAR4 Clone 1.2A (BMS Arctic ID 383940) were propagated and used for calcium mobilization studies.
FLIPR-based calcium mobilization assay in HEK293 cells was used to measure PAR4 antagonism, agonism, and selectivity against PAR1. The activity of the PAR4 antagonists of the present invention were tested in PAR4 expressing cells by monitoring H-Ala-Phe(4-F)-[…]NH2-induced intracellular calcium mobilization. Counter screens for agonist activity and PAR1 antagonist activity were also performed. Briefly, PAR1/PAR4-expressing HEK293 cells were grown in DMEM (Life Technology, Grand Island, N.Y.) containing 10% heat-inactivated FBS, 1% Penicillin-Streptomycin, 10 μg/mL blasticidin, and 100 μg/mL Zeocin at 37° C. with 5% CO2. […] Changes in fluorescence intensity were measured using a Functional Drug Screening System (FDSS, Hamamatsu, Japan) to determine agonist activities. […]
With SFFLRR [SFFLRR], the EC50 is around 2000 nM.
